Laboratory results published in patent US11084803B2, “Activators of class I histone deacetylases (HDACs) and uses thereof” (Massachusetts Institute of Technology, priority 2011, dated 2021).
“Also recorded” adds a separate entry of the source.

Tests used:
[1] = biological target: T1, Recombinant, full-length human HDAC1 (Homo sapiens, UniProt Q13547); test: Primary HDAC1 high-throughput screen, microfluidics-based deacetylase assay, single concentration; assay type: biochemical; conditions: for Average activation % during HTS (10 μM): substrate FAM-TSRHKacKL; for Percent activation (%) Replicate 1 / Percent activation (%) Replicate 2: high-throughput screening, 6 h; for Average activation % during HTS (10 μM) / Percent activation (%) Replicate 1 / Percent activation (%) Replicate 2: 10 μM
T1 construct: FLAG (C); purchased BPS Biosciences (San Diego, Calif.); host or cells: insect cells (Sf9)
Method: Recombinant, full-length human HDAC1 (GenBank Accession No. NM_004964) with a C-terminal FLAG tag was produced by BPS Biosciences (San Diego, Calif.) using large-scale insect cell protein expression and purification in order to support a large-scale high-throughput screen (HTS).
Compounds were tested with a reaction time of 6 h with compounds tested at a single concentration (10 μM) in duplicate. As a positive control, the biflavonoid gingketin was chosen.
Compounds were tested in duplicate at 10 μM nominal final concentration in 384-well plate format. The reference activator compound, ginkgetin (50 μM), was included in duplicates in each HTS plate as a positive control condition, 24 negative control samples (DMSO only) were included in each plate to provide for the 0% activation baseline.
Within each HTS plate, the effect of individual compounds on the enzymatic activity of HDAC1 was calculated as % change in the conversion of the peptide substrate relative to the average substrate conversion value calculated across the 24 negative control samples.

recombinant HDAC1 = biological target: T2, recombinant HDAC1 (Homo sapiens, UniProt Q13547); test: Secondary HDAC1 microfluidics-based assay, 8-point dose response, substrate FAM-TSRHKacKL; assay type: biochemical; conditions: for Emax: read-out: Maximum activation % during dose response (50 μM maximum); for AC50 / activation of up to (HDAC1): dose response 50 μM to 0.02 μM
T2 construct: FLAG (C); purchased BPS Biosciences (San Diego, Calif.); host or cells: insect cells (Sf9)

[2] = tested on: histone lysine residues known to be HDAC1 targets in HEK293T cells; test: Histone acetylation in HEK293T cells by Western blot; assay type: cell-based, Human; conditions: 10 μM or 50 μM, 20 h
Method: DAC compounds were added to HEK293T cells for 20 h. Vehicle was DMSO. Histones were acid-extracted and analyzed by Western blot for Ac-H3K56, Ac-H4K12, Ac-H3K14 and Ac-H2B. Histone 3 was used as the loading control.
Next, what was tested was whether a treatment of HDAC1 activators can increase HDAC1 enzymatic activity in cultured cells. Human HEK293T cells were treated with compounds at different concentrations (10 μM or 50 μM) for 20 h. Histone proteins were extracted, and Western blotting was used to analyze the acetylation of certain histone lysine residues known to be HDAC1 targets.

HT-22 cells [3] = test: Etoposide-induced DNA damage stress in HT-22 cells, cell viability; assay type: cell-based; conditions: 5 μM for DAC-001 and DAC-003, 10 μM for others; 3 h before 2 μM etoposide; 72 h; p<0.001
Method: (§1) HT-22 cells, a hippocampal neuron derived cell line, were used to model neurodegeneration. Two types of insults were used. […] Etoposide, a topoisomerase II inhibitor, stressed cells through DNA damage. These two types of stresses have been documented in neurodegenerative diseases.
Similarly, HT-22 cells were pre-incubated with compounds (5 μM for DAC-001 and DAC-003; 10 μM for others) for 3 h. Then, 2 μM etoposide was added to the culture medium. Cell viability was measured 72 h later (FIG. 5B).

DIV 14 cortical neurons = test: Neuronal excitotoxicity model, MAP2 staining of dendrites; assay type: cell-based; conditions: compound 20 h; 50 μM glutamate 1 h; p<0.01 for significant
Method: The neuroprotection potential of the candidate compounds were also tested using a neuronal excitoxicity model. DIV 14 cortical neurons were treated with the compounds for 20 h, 50 μM glutamate was added to the culture 1 h before processing the samples for immunocytochemistry. […] Ginkgetin was used as a positive control.

HT-22 cells [4] = test: Glutamate-induced oxidative stress in HT-22 cells, CellTiter-Glo viability; assay type: cell-based; conditions: compound 3 h before 2.5 mM glutamate; p<0.05 versus vehicle; 10 μM DAC-003
Method: as §1
HT-22 cells were treated with compounds for 3 h prior to the addition of 2.5 mM glutamate. Cell viability was measured by CellTiter-Glo assays (Promega) (FIG. 5A).

recombinant HDAC2 = recombinant HDAC2 (Homo sapiens, UniProt Q92769); test: Microfluidics-based deacetylase assay with HDAC2; assay type: biochemical; conditions: dose response
Method: (§2) Based upon the results of the HDAC1 activator screen performed, a total of 21 compounds (for structures, see FIGS. 6A to 6C) were initially selected as hits due to their ability to enhance the deacetylase activity of recombinant HDAC1. Those hits, designated as “DACs” (deacetylase activating compounds), were measured using a microfluidics-based assay with an acetylated peptidic substrate (FAM-TSRHKacKL) over a reaction time of 6 h. The 21 HTS hits plus two controls: ginkgetin (an activator) and TSA (trichostatin A, an inhibitor; for its structure, see FIG. 6A) were retested in an 8-point dose response ranging from 50 μM to 0.02 μM.
(§3) Microfluidics-based deacetylase assays were also performed using recombinant HDAC2, HDAC3, and HDAC8 to determine the selectivity of the compounds. Many of the confirmed compounds also activated HDAC2 isoform to a similar or even greater extent. Some compounds activated HDAC3 and inhibited the HDAC8 isoform.

recombinant HDAC3 = recombinant HDAC3 (Homo sapiens, UniProt O15379); test: Microfluidics-based deacetylase assay with HDAC3; assay type: biochemical; parameters: dose or concentration left out as unconfirmed; conditions: read-out: maximal effect (activation of HDAC3)
Method: as §2, §3

[5] = 8-point dose response 50 μM to 0.02 μM, 6 h

T1 sequence (Q13547 whole entry): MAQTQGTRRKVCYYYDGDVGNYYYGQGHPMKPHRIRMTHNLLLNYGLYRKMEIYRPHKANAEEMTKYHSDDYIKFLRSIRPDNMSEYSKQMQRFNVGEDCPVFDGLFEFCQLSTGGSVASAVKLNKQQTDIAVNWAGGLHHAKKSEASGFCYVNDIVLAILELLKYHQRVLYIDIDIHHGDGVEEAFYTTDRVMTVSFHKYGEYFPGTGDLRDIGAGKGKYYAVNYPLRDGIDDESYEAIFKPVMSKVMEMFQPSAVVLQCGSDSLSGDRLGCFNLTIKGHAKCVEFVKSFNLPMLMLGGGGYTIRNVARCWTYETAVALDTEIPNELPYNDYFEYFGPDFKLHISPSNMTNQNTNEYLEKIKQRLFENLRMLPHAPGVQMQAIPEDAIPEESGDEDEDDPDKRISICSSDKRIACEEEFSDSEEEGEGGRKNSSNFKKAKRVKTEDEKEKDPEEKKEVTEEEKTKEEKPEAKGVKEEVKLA
T2 sequence (Q13547 whole entry): as above
Sequence of recombinant HDAC2 (Q92769 whole entry, species assumed): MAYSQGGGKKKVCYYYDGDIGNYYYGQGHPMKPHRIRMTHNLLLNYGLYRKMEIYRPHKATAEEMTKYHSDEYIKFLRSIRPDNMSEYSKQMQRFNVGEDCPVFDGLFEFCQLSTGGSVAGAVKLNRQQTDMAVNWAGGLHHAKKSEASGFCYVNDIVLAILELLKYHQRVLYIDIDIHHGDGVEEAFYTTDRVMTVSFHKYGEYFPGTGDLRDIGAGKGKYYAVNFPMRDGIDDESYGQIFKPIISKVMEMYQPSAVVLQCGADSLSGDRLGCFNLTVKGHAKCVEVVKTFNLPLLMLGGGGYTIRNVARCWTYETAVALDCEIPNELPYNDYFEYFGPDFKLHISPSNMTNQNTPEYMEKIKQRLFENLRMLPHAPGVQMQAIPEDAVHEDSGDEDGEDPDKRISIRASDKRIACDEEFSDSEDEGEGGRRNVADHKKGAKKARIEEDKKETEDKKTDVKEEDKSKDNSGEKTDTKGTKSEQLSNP
Sequence of recombinant HDAC3 (O15379 whole entry, species assumed): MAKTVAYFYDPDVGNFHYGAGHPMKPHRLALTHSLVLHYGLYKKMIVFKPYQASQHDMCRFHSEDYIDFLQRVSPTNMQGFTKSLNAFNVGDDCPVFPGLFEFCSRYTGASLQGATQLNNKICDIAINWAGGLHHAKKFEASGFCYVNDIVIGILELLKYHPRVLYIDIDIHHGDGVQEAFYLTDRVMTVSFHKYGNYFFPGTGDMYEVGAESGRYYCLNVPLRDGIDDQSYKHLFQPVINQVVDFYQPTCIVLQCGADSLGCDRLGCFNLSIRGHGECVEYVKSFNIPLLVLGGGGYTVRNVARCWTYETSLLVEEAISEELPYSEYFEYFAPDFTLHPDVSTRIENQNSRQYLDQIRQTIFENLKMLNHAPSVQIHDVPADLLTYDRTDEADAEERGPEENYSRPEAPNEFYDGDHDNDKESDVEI
Sequence of recombinant HDAC3 (Q9Y618 395-489 partner limits assumed, species assumed): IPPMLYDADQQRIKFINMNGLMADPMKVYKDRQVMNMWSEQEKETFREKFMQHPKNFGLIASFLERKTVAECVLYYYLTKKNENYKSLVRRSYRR

Compound	Average activation % during HTS (10 μM) [1]	conversion of peptidic substrate FAM-TSRHKacKL to FAM-TSRHKKL (microfluidic fluorescence reader trace) ([1]; FIG. 3A, 3B)	Percent activation (%) Replicate 1 [1]	Percent activation (%) Replicate 2 [1]	Emax (recombinant HDAC1; [5])	AC50 (recombinant HDAC1)	activation of up to (HDAC1) (recombinant HDAC1)	Average effect (positive control) ([1]; ginkgetin 50 μM, 580 measurements, standard deviation: 4%)	Emax at 10 µM (recombinant HDAC1; plateau at 10 μM, read-out: maximal effect (activation of HDAC1))	AC50 (recombinant HDAC2)	Emax (recombinant HDAC2; read-out: maximal effect (activation of HDAC2))	Emax (recombinant HDAC3)	Maximum activation % during dose response (50 μM maximum) (recombinant HDAC1; [5])	levels of acetylated histones (Ac-H3K56, Ac-H3K14, Ac-H4K12, Ac-H2B) [2]	protection against DNA damage stress (cell viability) (HT-22 cells [3])	protection of neurons from excitotoxicity (retention of dendrites) (DIV 14 cortical neurons)	protection from oxidative stress (cell viability) (HT-22 cells [4])	effect on HDAC isoforms in dose response (recombinant HDAC1; all HDAC isoforms)
Cc1ccc(C(=O)NC(=S)Nc2ccc(-c3ccc(CO)o3)cc2)cc1 [DAC-001]	130.5%	increased conversion	122.6%	138.4%	287%	4.05 µM	up to 287%							reduced the levels of Ac-H3K56, Ac-H3K14, Ac-H4K12 and Ac-H2B	significantly protect cells from DSB-induced cell death; also recorded: significant protection	significant protection		
O=C(NC(=S)Nc1ccc(-c2ccc(CO)o2)cc1)c1cccs1 [DAC-002]	54.7%		52.7%	56.6%	221%	8.31 µM	≤ 221%							reduced the levels of Ac-H3K56, Ac-H3K14, Ac-H4K12 and Ac-H2B	significantly protect cells from DSB-induced cell death; also recorded: significant protection	trend of protection		
CCC(=O)C1(Sc2nc3ccccc3[nH]2)CC(C)(C)OC1=O (stereo not shown) [DAC-009]	18.7%		15.1%	22.2%	12%									reduced the levels of Ac-H3K56, Ac-H3K14, Ac-H4K12 and Ac-H2B	significantly protect cells from DSB-induced cell death; also recorded: significant protection			
COc1ccc(CNc2cc(C)ccc2C)c(OC)c1 [DAC-012]	17.7%		17.5%	17.9%	26%										significantly protect cells from DSB-induced cell death; also recorded: significant protection		trend of protection	
trichostatin A [reference compound]	0%												0%					dose dependent inhibition of all HDAC isoforms

Continued, in another order:

Average activation % during HTS (10 μM) [1]	conversion of peptidic substrate FAM-TSRHKacKL to FAM-TSRHKKL (microfluidic fluorescence reader trace) ([1]; FIG. 3A, 3B)	Percent activation (%) Replicate 1 [1]	Percent activation (%) Replicate 2 [1]	Emax (recombinant HDAC1; [5])	AC50 (recombinant HDAC1)	activation of up to (HDAC1) (recombinant HDAC1)	Average effect (positive control) ([1]; ginkgetin 50 μM, 580 measurements, standard deviation: 4%)	Emax at 10 µM (recombinant HDAC1; plateau at 10 μM, read-out: maximal effect (activation of HDAC1))	AC50 (recombinant HDAC2)	Emax (recombinant HDAC2; read-out: maximal effect (activation of HDAC2))	Emax (recombinant HDAC3)	Maximum activation % during dose response (50 μM maximum) (recombinant HDAC1; [5])	Compound	levels of acetylated histones (Ac-H3K56, Ac-H3K14, Ac-H4K12, Ac-H2B) [2]	protection against DNA damage stress (cell viability) (HT-22 cells [3])	protection of neurons from excitotoxicity (retention of dendrites) (DIV 14 cortical neurons)	protection from oxidative stress (cell viability) (HT-22 cells [4])	effect on HDAC isoforms in dose response (recombinant HDAC1; all HDAC isoforms)
24.6%		24.2%	24.9%	34%									Cc1cccc2c1[nH]c1nc(N/N=C/c3ccc(O)c(O)c3)nnc12 [DAC-003]	reduced the levels of Ac-H3K56, Ac-H3K14, Ac-H4K12 and Ac-H2B	significantly protect cells from DSB-induced cell death; also recorded: significant protection	trend of protection	significantly protect cells from oxidative insults; also recorded: significantly protect cells from oxidative stress	
25.6%				23%			26% activation	20%	28 µM	165%	20%		COc1cc(O)c2c(=O)cc(-c3ccc(OC)c(-c4c(O)cc(O)c5c(=O)cc(-c6ccc(O)cc6)oc45)c3)oc2c1 [ginkgetin, reference compound]					
